Measurements as given in patent publication US7247725B2, “Gamma-aminoamide modulators of chemokine receptor activity” (Merck & Co., Inc., priority 2002, dated 2007).

Target: CCR-2 (Homo sapiens, UniProt P41597)
Assay: relative activity of separated diastereomers (assay not stated)
Details: single isomers separated by chiral HPLC (ChiralPak OD); fast vs slow isomer

Chain of CCR-2 (P41597 whole entry): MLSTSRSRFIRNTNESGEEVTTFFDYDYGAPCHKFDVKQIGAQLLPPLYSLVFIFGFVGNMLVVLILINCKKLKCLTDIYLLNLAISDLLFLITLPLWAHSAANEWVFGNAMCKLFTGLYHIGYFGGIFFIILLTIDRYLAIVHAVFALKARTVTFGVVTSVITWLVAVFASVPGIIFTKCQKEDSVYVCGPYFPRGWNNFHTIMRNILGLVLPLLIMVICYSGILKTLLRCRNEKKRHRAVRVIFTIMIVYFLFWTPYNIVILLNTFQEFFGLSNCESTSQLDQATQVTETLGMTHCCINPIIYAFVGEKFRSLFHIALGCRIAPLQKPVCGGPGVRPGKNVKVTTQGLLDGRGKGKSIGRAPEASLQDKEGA

SMILES	relative activity of the two diastereomers epimeric α to the amide carbonyl
CC(=O)Nc1nc([C@H](CCN2CC[C@@]3(C=Cc4ccccc43)[C@@H](C)C2)C(=O)NCc2cc(C(F)(F)F)cc(C(F)(F)F)c2)cs1 [Example 52h-(S)]	more active
CC(=O)Nc1nc([C@@H](CCN2CC[C@@]3(C=Cc4ccccc43)[C@@H](C)C2)C(=O)NCc2cc(C(F)(F)F)cc(C(F)(F)F)c2)cs1 [Example 52h-(R)]	less active
